Test results reported in patent US20250375430A1, “USE OF DIHYDROBERBERINE TO PROMOTE RECRUITMENT AND ACTIVATION OF BROWN ADIPOSE TISSUES” (NANJING NUTRABUILDING BIO-TECH CO., LTD., priority 2023, published 2025).

Assays:
obese db/db mice = conditions: cited from earlier work
brown adipocyte = conditions: by increasing transcription of PRDM16 via AMPK activation and PGC-1α recruitment; cited from earlier work
C57BL/6J mice [1] = experiment: Plasma TC, TG, LDL, VLDL measured with kits in high-fat diet mice; assay type: in vivo
Procedure: Six-week-old male C57BL/6J mice were housed in a temperature-and relative humidity-controlled room (22±2° C., 55±5%) with a 12 h light-dark cycle and free access to food and water. For chronic anti-obesity studies, all mice were fed the high-fat diet (HFD, 60% calories from fat, 20% calories from protein, 20% calories from carbohydrate) for 8 weeks. At 14 weeks of age, all mice were randomly divided into 3 groups of 10 animals: (1) non-supplement group (Con Food only, Group 1); (2) DHB supplement group (DHB+Food. 50 mg/kg, Group 2); (3) DHB supplement group (DHB+Food, 100 mg/kg, Group 3). After an eight-week induction, the mice in group I were intraperitoneal injection (i.p.) administrated with normal saline between 9:30 and 11:30 am, and food and water were given ad libitum. The mice in group 2 and group 3 were intraperitoneal injection (i.p.) administrated with DHB in normal saline solution daily for 6 weeks between 9:30 and 11:30 am, and food and water were given ad libitum. The total experimental time is 14 weeks, including two periods: an eight-week induction period and a subsequent six-week supplement period. Plasma total cholesterol (TC), triglyceride (TG), low-density lipoprotein (LDL), and very low-density lipoprotein (VLDL) were measured using corresponding kits according to the manufacturers' instructions.

C57BL/6J mice [2] = experiment: i.p. glucose tolerance test (GTT) in obese mice; assay type: in vivo; conditions: 4th week of supplementation; glucose 0.75 g/kg i.p.; 0-120 min; especially higher dose; FIG. 5
Procedure: (§1) Six-week-old male C57BL/6J mice were housed in a temperature-and relative humidity-controlled room (22±2° C., 55±5%) with a 12 h light-dark cycle and free access to food and water. For chronic anti-obesity studies, all mice were fed the high-fat diet (HFD, 60% calories from fat, 20% calories from protein, 20% calories from carbohydrate) for 8 weeks. At 14 weeks of age, all mice were randomly divided into 3 groups of 10 animals: (1) non-supplement group (Con Food only, Group 1); (2) DHB supplement group (DHB+Food. 50 mg/kg, Group 2); (3) DHB supplement group (DHB+Food, 100 mg/kg, Group 3). The mice in group 2 and group 3 were intraperitoneal injection (i.p.) administrated with DHB in normal saline solution daily for 6 weeks between 9:30 and 11:30 am, and food and water were given ad libitum.

C57BL/6J mice [3] = experiment: Insulin tolerance test (ITT); assay type: in vivo; conditions: FIG. 6
Procedure: as §1, with “libitum. An insulin tolerance test (ITT) was performed by using a glucose analyzer in the 6-h fasting mice in the 5th week of the supplementation. The glucose concentrations were measured by venous bleeding at 0, 15, 30, 60 and 120 min after an i.p. injection of human insulin at 1 U/kg.” for “libitum.”

C57BL/6J mice [4] = experiment: Body weight and fat mass by nuclear magnetic resonance body composition analyzer; assay type: in vivo
Procedure: as §1, with “libitum. The body weight and fat mass of all mice were performed by the nuclear magnetic resonance body composition analyzer by Nuclear Magnetic Resonance Body Composition Analyzer in accordance with manufacturer's instruction. The body weight and fat mass were tested weekly (9-14 weeks) and at 9th and 14th week before supplementation and feeding, respectively.” for “libitum.”

UCP1 and PGC-1α = experiment: mRNA levels of brown fat-enriched genes in adipose tissues (inguinal WAT) by real-time PCR; assay type: in vivo, mice
Procedure: Six-week-old male C57BL/6J mice were housed in a temperature-and relative humidity-controlled room (22±2° C., 55±5%) with a 12 h light-dark cycle and free access to food and water. For chronic anti-obesity studies, all mice were fed the high-fat diet (HFD, 60% calories from fat, 20% calories from protein, 20% calories from carbohydrate) for 8 weeks.
At 14 weeks of age, all mice were randomly divided into 3 groups of 10 animals: (1) non-supplement group (Con Food only, Group 1); (2) DHB supplement group (DHB+Food. 50 mg/kg, Group 2); (3) DHB supplement group (DHB+Food, 100 mg/kg, Group 3).
The mice in group 2 and group 3 were intraperitoneal injection (i.p.) administrated with DHB in normal saline solution daily for 6 weeks between 9:30 and 11:30 am, and food and water were given ad libitum.
At the end of the study, all mice were anesthetized with chloral hydrate, all relevant tissues like inguinal and perirenal adipose were dissected, weighed, immediately frozen in liquid nitrogen, and stored at −80° C.
The mRNA levels of brown fat-enriched genes such as UCP1 and PGC-1α from adipose tissues (like inguinal WAT) were determined by real-time PCR analysis.

UCP1, PRDM16 and PGC-1α = experiment: Expression levels of UCP1, PRDM16 and PGC-1α (FIG. 10); assay type: in vivo; conditions: relative to mice without DHB
Procedure: as §1

C57BL/6J mice [5] = experiment: Energy expenditure by comprehensive lab animal monitoring system (CLAMS), indirect calorimeter; assay type: in vivo
Procedure: Six-week-old male C57BL/6J mice were housed in a temperature-and relative humidity-controlled room (22±2° C., 55±5%) with a 12 h light-dark cycle and free access to food and water. For chronic anti-obesity studies, all mice were fed the high-fat diet (HFD, 60% calories from fat, 20% calories from protein, 20% calories from carbohydrate) for 8 weeks. At 14 weeks of age, all mice were randomly divided into 3 groups of 10 animals: (1) non-supplement group (Con Food only, Group 1); (2) DHB supplement group (DHB+Food. 50 mg/kg, Group 2); (3) DHB supplement group (DHB+Food, 100 mg/kg, Group 3). The mice in group 2 and group 3 were intraperitoneal injection (i.p.) administrated with DHB in normal saline solution daily for 6 weeks between 9:30 and 11:30 am, and food and water were given ad libitum. A key factor for controlling energy homoeostasis is the balance between caloric intake and energy expenditure. We analyzed the actions of DHB on energy expenditure using comprehensive lab animal monitoring system (CLAMS). Metabolic analysis was conducted between 8:30 am and 7:30 pm at the last week of experiment to identify […]. O2 consumption, CO2 production, and locomotor activity were measured using a 16-chamber indirect calorimeter. The mice were acclimated to the system for 20-24 h, and measurement of VO2 and VCO2 was performed during the next 24 h. The mice were maintained at 24° C. under a 12 h light/dark cycle. Food and water were available ad libitum. Voluntary activity was derived from the x-axis beam breaks monitored every 15 min. Heat production (energy expenditure) was calculated using the following equation: [formula] where heat is measured in kcal h^−1, VO2 is measured in litres kg^−1 h^−1 and body weight is measured in kg.

BAT = experiment: 18F-FDG uptake in BAT by PET/CT; assay type: in vivo, mice; conditions: PET/CT 60 min after tracer; fasted overnight; FIG. 14
Procedure: as §1, with “libitum. […] [formula]” for “libitum.”

C57BL/6J mice [6] = experiment: Rectal temperature in the cold room; assay type: in vivo; conditions: cold room 4-8° C.; 9th and 14th week; FIG. 15
Procedure: as §1

[7] = in vitro; cited from earlier work
[8] = mice, including mice lacking intestinal bacteria needed to break down BBR; cited from earlier work
[9] = 100 mg/kg compared with 50 mg/kg
[10] = adipose tissue (inguinal WAT), real-time PCR, relative to mice without DHB, FIG. 9

COc1ccc2cc3[n+](cc2c1OC)CCc1cc2c(cc1-3)OCO2 [BBR, berberine]
energy expenditure and adaptive thermogenesis (obese db/db mice): increase | thermogenic program in BAT (obese db/db mice): promote the thermogenic program in BAT | weight gain (obese db/db mice): reduce weight gain | brown adipocyte differentiation and BAT thermogenesis (brown adipocyte): promote

COc1ccc2c(c1OC)CN1CCc3cc4c(cc3C1=C2)OCO4 [DHB, dihydroberberine]
improving biomarkers related to lipid mobilization, higher dose than lower dose (C57BL/6J mice [1]; [9]): greater effects | TG level (C57BL/6J mice [1]; plasma, HFD mice, DHB i.p. 50 or 100 mg/kg daily for 6 weeks, relative to mice without DHB, FIG. 1): lower levels | TC level (C57BL/6J mice [1]; plasma, HFD mice, DHB i.p. 50 or 100 mg/kg daily for 6 weeks, relative to mice without DHB, FIG. 2): lower levels | LDL level (C57BL/6J mice [1]; plasma, HFD mice, DHB i.p. 50 or 100 mg/kg daily for 6 weeks, relative to mice without DHB, FIG. 3): lower levels | VLDL level (C57BL/6J mice [1]; plasma, HFD mice, DHB i.p. 50 or 100 mg/kg daily for 6 weeks, relative to mice without DHB, FIG. 4): lower levels | tolerance to a glucose load (i.p. glucose tolerance test) (C57BL/6J mice [2]): better tolerance to a glucose load | insulin tolerance test result, higher-dose group (C57BL/6J mice [3]; [9]): better result | insulin tolerance test result (C57BL/6J mice [3]; 5th week of supplementation, 6-h fasting, human insulin 1 U/kg i.p.): ameliorated glucose tolerance | body weight (weight gain) (C57BL/6J mice [4]; group 2 and 3 (50 and 100 mg/kg), 6 weeks of treatment, week 9 to 14, FIG. 7): obviously protected from weight gain | fat mass percentage (fat accumulation) (C57BL/6J mice [4]; group 3 (100 mg/kg), 9th and 14th week, FIG. 8): inhibited fat accumulation better | body fat percentage (C57BL/6J mice [4]; relative to mice without DHB supplementation): decreases body fat percentage | browning of white fat, higher dose than lower dose (UCP1 and PGC-1α; [9]): greater effects | PGC-1α mRNA level (UCP1 and PGC-1α; [10]): higher levels | UCP1 mRNA level (UCP1 and PGC-1α; [10]): higher levels | expression of PGC-1α (UCP1, PRDM16 and PGC-1α): increase the expression | expression of PRDM16 (UCP1, PRDM16 and PGC-1α): increase the expression | expression of UCP1 (UCP1, PRDM16 and PGC-1α): increase the expression | BAT thermogenesis and energy expenditure, higher dose than lower dose (C57BL/6J mice [5]; [9]): greater effects | BAT thermogenesis and energy expenditure (C57BL/6J mice [5]; 24 h period, FIG. 13): beneficial effects | oxygen consumption (VO2) rate (C57BL/6J mice [5]; through a 12-h light/dark cycle, 24 h period, 24° C., FIG. 11): markedly higher | carbon dioxide production (VCO2) rate (C57BL/6J mice [5]; through a 12-h light/dark cycle, 24 h period, 24° C., FIG. 12): markedly higher | total accumulated amount of 18F-FDG in BAT (BAT): increase the accumulated amount | rectal temperature (C57BL/6J mice [6]): higher | intestinal absorption rate relative to BBR [7]: five times higher | absorption relative to BBR [8]: better absorbed
